What was measured:
[1] = target: JAK1 (Homo sapiens (Human), UniProt P23458); assay: Jak biochemical HTRF assay, JAK1; settings: recombinant purified GST-tagged catalytic domain; HTRF format; [ATP] 31.8 μM
Excerpt: (§1) Jak Biochemical HTRF Assay Protocol
(§2) Subsequent reagent additions employed an Agilent Bravo.

[2] = target: JAK2 (Homo sapiens (Human), UniProt O60674); assay: Jak biochemical HTRF assay, JAK2; settings: recombinant purified GST-tagged catalytic domain, HTRF format
Excerpt: as §1, §2

JAK2, sequence (O60674 849-1124): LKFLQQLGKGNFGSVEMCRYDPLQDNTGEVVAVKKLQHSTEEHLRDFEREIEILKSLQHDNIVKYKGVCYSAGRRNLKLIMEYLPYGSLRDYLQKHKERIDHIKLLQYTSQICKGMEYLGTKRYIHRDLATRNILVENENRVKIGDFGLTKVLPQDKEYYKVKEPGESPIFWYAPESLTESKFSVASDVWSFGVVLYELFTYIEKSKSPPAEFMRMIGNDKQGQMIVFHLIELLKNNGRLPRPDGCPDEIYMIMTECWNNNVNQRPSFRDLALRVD
JAK1, sequence (P23458 875-1153): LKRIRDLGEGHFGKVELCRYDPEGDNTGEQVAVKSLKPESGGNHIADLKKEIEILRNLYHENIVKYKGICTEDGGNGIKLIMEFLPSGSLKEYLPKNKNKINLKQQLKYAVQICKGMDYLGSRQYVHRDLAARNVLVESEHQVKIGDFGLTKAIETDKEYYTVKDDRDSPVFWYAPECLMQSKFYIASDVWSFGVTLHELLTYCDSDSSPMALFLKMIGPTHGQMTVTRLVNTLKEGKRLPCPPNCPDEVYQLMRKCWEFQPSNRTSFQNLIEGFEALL

SMILES	IC50 [1]	IC50 ([2]; [ATP] 8.5 μM)	IC50 ([2]; [ATP] […])
Cn1ccc(CN2CC[C@@H](C#N)[C@H](n3cc(C(N)=O)c(Nc4ccc(F)cc4)n3)C2)n1 (racemic) [Example 6-5, 1-{(3S,4R and 3R,4S)-4-cyano-1-[(1-methyl-1H-pyrazol-3-yl)methyl]piperidin-3-yl}-3-[(4-fluorophenyl)amino]-1H-pyrazole-4-carboxamide]	0.002 µM	0.014 µM	–
N#C[C@@H]1CN(C(=O)OC2COC2)CC[C@H]1n1cc(C(N)=O)c(Nc2ccc(F)cc2)n1 (racemic) [Example 5-5, oxetan-3-yl (3R,4R and 3S,4S)-4-{4-carbamoyl-3-[(4-fluorophenyl)amino]-1H-pyrazol-1-yl}-3-cyanopiperidine-1-carboxylate]	0.012 µM	0.185 µM	–
N#C[C@@H]1CN(C(=O)OC2COC2)CC[C@@H]1n1cc(C(N)=O)c(Nc2ccc(F)cc2)n1 (racemic) [Example 5-57, oxetan-3-yl (3R,4S and 3S,4R)-4-{4-carbamoyl-3-[(4-fluorophenyl)amino]-1H-pyrazol-1-yl}-3-cyanopiperidine-1-carboxylate]	0.295 µM	1.11 µM	–
COCCOC(=O)N1CC[C@H](n2cc(C(N)=O)c(Nc3ccc(F)cc3)n2)[C@H](C#N)C1 (racemic) [Example 5-54, 2-methoxyethyl (3R,4S and 3S,4R)-4-{4-carbamoyl-3-[(4-fluorophenyl)amino]-1H-pyrazol-1-yl}-3-cyanopiperidine-1-carboxylate]	0.529 µM	> 1.5 µM	–
N#C[C@@H]1CCN(C(=O)OCC(F)(F)CO)CC1n1cc(C(N)=O)c(Nc2ccc(F)cc2)n1 (mixture of isomers) [Example 5-74, 2,2-difluoro-3-hydroxypropyl (3S,4R and 3R,4S)-3-{4-carbamoyl-3-[(4-fluorophenyl)amino]-1H-pyrazol-1-yl}-4-cyanopiperidine-1-carboxylate]	0.001 µM	0.014 µM	–
N#C[C@@H]1CCN(Cc2ncco2)C[C@H]1n1cc(C(N)=O)c(Nc2ccc(F)cc2)n1 (racemic) [Example 6-8, 1-[(3S,4R and 3R,4S)-4-cyano-1-(1,3-oxazol-2-ylmethyl)piperidin-3-yl]-3-[(4-fluorophenyl)amino]-1H-pyrazole-4-carboxamide]	0.002 µM	0.022 µM	–
N#C[C@@H]1CCN(C(=O)OC2COC2)CC1n1cc(C(N)=O)c(Nc2ccc(F)cc2)n1 (mixture of isomers) [Example 5-89, oxetan-3-yl (3S,4R and 3R,4S)-3-{4-carbamoyl-3-[(4-fluorophenyl)amino]-1H-pyrazol-1-yl}-4-cyanopiperidine-1-carboxylate]	0.003 µM	0.043 µM	–
N#C[C@@H]1CCN(C(=O)OCc2ccccc2)CC1n1cc(C(N)=O)c(Nc2ccc(F)cc2)n1 (mixture of isomers) [Example 5-82, benzyl (3S,4R and 3R,4S)-3-{4-carbamoyl-3-[(4-fluorophenyl)amino]-1H-pyrazol-1-yl}-4-cyanopiperidine-1-carboxylate]	0.002 µM	0.053 µM	–
N#C[C@@H]1CN(CC2CCC2)CC[C@H]1n1cc(C(N)=O)c(Nc2ccc(F)cc2)n1 [Example 6-40, 1-[(3R,4R)-3-cyano-1-(cyclobutylmethyl)piperidin-4-yl]-3-[(4-fluorophenyl)amino]-1H-pyrazole-4-carboxamide]	0.005 µM	–	0.066 µM
CC1(c2ccc(Nc3nn([C@H]4COCC[C@@H]4C#N)cc3C(N)=O)cc2)COC1 (single isomer, unassigned) [Example 9-24, 1-[(3R,4S or 3S,4R)-4-cyanotetrahydro-2H-pyran-3-yl]-3-{[4-(3-methyloxetan-3-yl)phenyl]amino}-1H-pyrazole-4-carboxamide]	0.0001 µM	0.0006 µM	–
CC1(COC(=O)N2CC[C@@H](C#N)C(n3cc(C(N)=O)c(Nc4ccc(F)cc4)n3)C2)CC1 (mixture of isomers) [Example 5-72, (1-methylcyclopropyl)methyl (3S,4R and 3R,4S)-3-{4-carbamoyl-3-[(4-fluorophenyl)amino]-1H-pyrazol-1-yl}-4-cyanopiperidine-1-carboxylate]	0.005 µM	0.069 µM	–
CC(C)COC(=O)N1CC[C@@H](C#N)C(n2cc(C(N)=O)c(Nc3ccc(F)cc3)n2)C1 (mixture of isomers) [Example 5-77, 2-methylpropyl (3S,4R and 3R,4S)-3-{4-carbamoyl-3-[(4-fluorophenyl)amino]-1H-pyrazol-1-yl}-4-cyanopiperidine-1-carboxylate]	0.004 µM	0.076 µM	–
CCOC(=O)N1CC[C@@H](C#N)C(n2cc(C(N)=O)c(Nc3ccc(F)cc3)n2)C1 (mixture of isomers) [Example 5-76, ethyl (3S,4R and 3R,4S)-3-{4-carbamoyl-3-[(4-fluorophenyl)ainino]-1H-pyrazol-1-yl}-4-cyanopiperidine-1-carboxylate]	0.005 µM	0.062 µM	–
COCCOC(=O)N1CC[C@@H](n2cc(C(N)=O)c(Nc3ccc(F)cc3)n2)[C@H](C#N)C1 (racemic) [Example 5-29, 2-methoxyethyl (3R,4R and 3S,4S)-4-{4-carbamoyl-3-[(4-fluorophenyl)amino]-1H-pyrazol-1-yl}-3-cyanopiperidine-1-carboxylate]	0.009 µM	0.202 µM	–
CC(C)(C)COC(=O)N1CC[C@@H](C#N)C(n2cc(C(N)=O)c(Nc3ccc(F)cc3)n2)C1 (mixture of isomers) [Example 5-80, 2,2-dimethylpropyl (3S,4R and 3R,4S)-3-{4-carbamoyl-3-[(4-fluorophenyl)amino]-1H-pyrazol-1-yl}-4-cyanopiperidine-1-carboxylate]	0.006 µM	0.145 µM	–
N#C[C@@H]1CN(C(=O)OCCN2CCCC2)CC[C@H]1n1cc(C(N)=O)c(Nc2ccc(F)cc2)n1 (racemic) [Example 5-19, 2-pyrrolidin-1-ylethyl (3R,4R and 3S,4S)-4-{4-carbamoyl-3-[(4-fluorophenyl)amino]-1H-pyrazol-1-yl}-3-cyanopiperidine-1-carboxylate]	0.022 µM	1.1 µM	–
N#C[C@@H]1CN(Cc2cccnc2F)CC[C@H]1n1cc(C(N)=O)c(Nc2ccc(F)cc2)n1 (racemic) [Example 6-35, 1-{(3R,4R and 3S,4S)-3-cyano-1-[(2-fluoropyridin-3-yl)methyl]piperidin-4-yl}-3-[(4-fluorophenyl)amino]-1H-pyrazole-4-carboxamide]	0.005 µM	0.079 µM	–
N#C[C@@H]1CCN(Cc2ccon2)C[C@H]1n1cc(C(N)=O)c(Nc2ccc(F)cc2)n1 (racemic) [Example 6-3, 1-[(3S,4R and 3R,4S)-4-cyano-1-(isoxazol-3-ylmethyl)piperidin-3-yl]-3-[(4-fluorophenyl)amino]-1H-pyrazole-4-carboxamide]	0.002 µM	0.013 µM	–
C[C@@H]1C[C@H](C#N)[C@@H](n2cc(C(N)=O)c(Nc3ccnc(F)c3)n2)CO1 (mixture of isomers) [Example 10-1, 1-((3R,4S,6R and 3S,4R,6S)-4-Cyano-6-methyltetrahydro-2H-pyran-3-yl)-3-((2-fluoropyridin-4-yl)amino)-1H-pyrazole-4-carboxamide]	0.005 µM	–	0.025 µM
Cc1ncoc1CN1CC[C@@H](C#N)[C@H](n2cc(C(N)=O)c(Nc3ccc(F)cc3)n2)C1 [Example 7-2, 1-{(3S,4R, 3R,4S)-4-cyano-1-[(4-methyl-1,3-oxazol-5-yl)methyl]piperidin-3-yl}-3-[(4-fluorophenyl)amino]-1H-pyrazole-4-carboxamide]	0.0006 µM	–	0.008 µM
N#C[C@@H]1CN(C(=O)OCCF)CC[C@@H]1n1cc(C(N)=O)c(Nc2ccc(F)cc2)n1 (racemic) [Example 5-58, 2-fluoroethyl (3R,4S and 3S,4R)-4-{4-carbamoyl-3-[(4-fluorophenyl)amino]-1H-pyrazol-1-yl}-3-cyanopiperidine-1-carboxylate]	0.102 µM	1.12 µM	–
N#C[C@H]1CCOC[C@@H]1n1cc(C(N)=O)c(Nc2ccc(OCC(F)(F)F)nc2)n1 (single isomer, unassigned) [Example 9-36, 1-[(3R,4S or 3S,4R)-4-cyanotetrahydro-2H-pyran-3-yl]-3-{[6-(2,2,2-trifluoroethoxy)pyridin-3-yl]amino}-1H-pyrazole-4-carboxamide]	0.0006 µM	0.003 µM	–
CC(OC(=O)N1CC[C@H](n2cc(C(N)=O)c(Nc3ccc(F)cc3)n2)[C@H](C#N)C1)C1CC1 (mixture of isomers) [Example 5-68, 1-cyclopropylethyl (3R,4S and 3S,4R)-4-{4-carbamoyl-3-[(4-fluorophenyl)amino]-1H-pyrazol-1-yl}-3-cyanopiperidine-1-carboxylate]	0.434 µM	> 1.5 µM	–
N#C[C@@H]1CN(Cc2cccnn2)CC[C@H]1n1cc(C(N)=O)c(Nc2ccc(F)cc2)n1 (racemic) [Example 6-22, 1-[(3R,4R and 3S,4S)-3-cyano-1-(pyridazin-3-ylmethyl)piperidin-4-yl]-3-[(4-fluorophenyl)amino]-1H-pyrazole-4-carboxamide]	0.019 µM	0.22 µM	–
Cc1cc(CN2CC[C@@H](C#N)[C@H](n3cc(C(N)=O)c(Nc4ccc(F)cc4)n3)C2)no1 (racemic) [Example 6-14, 1-{(3S,4R and 3R,4S)-4-cyano-1-[(5-methylisoxazol-3-yl)methyl]piperidin-3-yl}-3-[(4-fluorophenyl)amino]-1H-pyrazole-4-carboxamide]	0.004 µM	0.042 µM	–
CCOC(=O)COC(=O)N1CC[C@@H](C#N)C(n2cc(C(N)=O)c(Nc3ccc(F)cc3)n2)C1 (mixture of isomers) [Example 5-84, 2-ethoxy-2-oxoethyl (3S,4R and 3R,4S)-3-{4-carbamoyl-3-[(4-fluorophenyl)amino]-1H-pyrazol-1-yl}-4-cyanopiperidine-1-carboxylate]	0.006 µM	0.187 µM	–
N#C[C@@H]1CN(C(=O)OCCCc2ccccc2)CC[C@@H]1n1cc(C(N)=O)c(Nc2ccc(F)cc2)n1 (racemic) [Example 5-55, 3-phenylpropyl (3R,4S and 3S,4R)-4-{4-carbamoyl-3-[(4-fluorophenyl)amino]-1H-pyrazol-1-yl}-3-cyanopiperidine-1-carboxylate]	0.35 µM	> 1.5 µM	–
